According to US12599136B2, “Substituted isophthalic acid diamides and their use as herbicides” (Bayer Aktiengesellschaft, priority 2020, dated 2026):

Key:
Type in all cases: in vivo
[1] = test system: Hordeum murinum; assay: Post-emergence herbicidal action against HORMU
Experimental: Seeds of monocotyledonous and dicotyledonous weed and crop plants are laid out in sandy loam soil in wood-fiber pots, covered with soil and cultivated in a greenhouse under good growth conditions. 2 to 3 weeks after sowing, the test plants are treated at the one-leaf stage. The compounds of the invention, formulated in the form of wettable powders (WP) or as emulsion concentrates (EC), are then sprayed onto the green parts of the plants in the form of an aqueous suspension or emulsion at a water application rate equivalent to 600 to 800 l/ha, with addition of 0.2% wetting agent. After the test plants have been left to stand in the greenhouse under optimal growth conditions for about 3 weeks, the action of the preparations is assessed visually in comparison to untreated controls (herbicidal action in percent (%): 100% activity=the plants have died, 0% activity=like control plants). […] The tables below illustrate, in an illustrative manner, the post-emergence herbicidal action of the compounds of the invention, the herbicidal activity being stated in percent.

[2] = test system: Avena fatua; assay: Pre-emergence herbicidal action against AVEFA; settings: visual score after 3 weeks vs untreated controls
Procedure, shortened: (§1)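 Pre-emergence soil-surface spray of formulated compound (WP or EC; 600 to 800 l/ha; 0.2% wetting agent) over seeds sown in sandy loam. After 3 weeks under greenhouse conditions, damage is estimated visually in percent against untreated plants.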

[3] = test system: Pharbitis purpurea; assay: Post-emergence herbicidal action against PHBPU; settings: visual assessment about 3 weeks after treatment
Procedure, shortened: (§2)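 Greenhouse plants in sandy loam were sprayed at the one-leaf stage, 2 to 3 weeks after sowing, with WP or EC formulations as aqueous suspension or emulsion (600 to 800 l/ha water, 0.2% wetting agent). Visual damage was scored about 3 weeks later versus untreated controls, 0% = like control, 100% = dead.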

[4] = test system: Viola tricolor; assay: Post-emergence herbicidal action against VIOTR
Procedure, shortened: as §2

[5] = test system: Veronica persica; assay: Pre-emergence herbicidal action against VERPE; settings: 320 g/ha
Procedure, shortened: as §1

[6] = test system: Amaranthus retroflexus; assay: Pre-emergence herbicidal action against AMARE; settings: visual score after 3 weeks vs untreated controls
Procedure, shortened: as §1

[7] = test system: Abutilon theophrasti; assay: Post-emergence herbicidal action against ABUTH
Procedure, shortened: as §2

[8] = test system: Stellaria media; assay: Pre-emergence herbicidal action against STEME
Procedure, shortened: as §1

[9] = test system: Hordeum murinum; assay: Pre-emergence herbicidal action against HORMU; settings: visual score after 3 weeks vs untreated controls
From the text: Seeds of monocotyledonous and dicotyledonous weed plants and crop plants are laid out in sandy loam soil in wood-fiber pots and covered with soil. The compounds of the invention, formulated in the form of wettable powders (WP) or as emulsion concentrates (EC), are then applied to the surface of the covering soil in the form of an aqueous suspension or emulsion at a water application rate equivalent to 600 to 800 l/ha, with addition of 0.2% wetting agent. After the treatment, the pots are placed in a greenhouse and kept under good growth conditions for the trial plants. The damage to the test plants is scored visually after a test period of 3 weeks by comparison with untreated controls (herbicidal activity in percent (%): 100% activity=the plants have died, 0% activity=like control plants). […] The tables below illustrate, in an illustrative manner, the post-emergence herbicidal action of the compounds of the invention, the herbicidal activity being stated in percent.

[10] = test system: Setaria viridis; assay: Pre-emergence herbicidal action against SETVI
Procedure, shortened: as §1

[11] = test system: Cyperus esculentus; assay: Pre-emergence herbicidal action against CYPES; settings: visual score after 3 weeks vs untreated controls
Procedure, shortened: as §1

[12] = test system: Abutilon theophrasti; assay: Pre-emergence herbicidal action against ABUTH; settings: visual score after 3 weeks vs untreated controls
Procedure, shortened: as §1

[13] = test system: Viola tricolor; assay: Pre-emergence herbicidal action against VIOTR
Procedure, shortened: as §1

[14] = test system: Amaranthus retroflexus; assay: Post-emergence herbicidal action against AMARE; settings: visual assessment about 3 weeks after treatment
Procedure, shortened: as §2

[15] = test system: Matricaria inodora; assay: Post-emergence herbicidal action against MATIN; settings: visual assessment about 3 weeks after treatment
Procedure, shortened: as §2

[16] = test system: Avena fatua; assay: Post-emergence herbicidal action against AVEFA; settings: visual assessment about 3 weeks after treatment
Procedure, shortened: as §2

[17] = test system: Stellaria media; assay: Post-emergence herbicidal action against STEME; settings: visual assessment about 3 weeks after treatment
Procedure, shortened: as §2

[18] = test system: Matricaria inodora; assay: Pre-emergence herbicidal action against MATIN; settings: visual score after 3 weeks vs untreated controls
Procedure, shortened: as §1

[19] = test system: Setaria viridis; assay: Post-emergence herbicidal action against SETVI; settings: visual assessment about 3 weeks after treatment
Procedure, shortened: as §2

[20] = test system: Lolium rigidum; assay: Pre-emergence herbicidal action against LOLRI; settings: 320 g/ha
Procedure, shortened: as §1

[21] = test system: Alopecurus myosuroides; assay: Pre-emergence herbicidal action against ALOMY; settings: visual score after 3 weeks vs untreated controls
Procedure, shortened: as §1

[22] = test system: Echinochloa crus-galli; assay: Pre-emergence herbicidal action against ECHCG; settings: visual score after 3 weeks vs untreated controls
Procedure, shortened: as §1

[23] = test system: Echinochloa crus-galli; assay: Post-emergence herbicidal action against ECHCG; settings: visual assessment about 3 weeks after treatment
Procedure, shortened: as §2

[24] = test system: Pharbitis purpurea; assay: Pre-emergence herbicidal action against PHBPU; settings: 320 g/ha; visual score after 3 weeks vs untreated controls
Procedure, shortened: as §1

[25] = test system: Alopecurus myosuroides; assay: Post-emergence herbicidal action against ALOMY
Procedure, shortened: as §2

## CCCn1nnnc1NC(=O)c1ccc(C(F)(F)F)c(C(=O)N(C)C)c1Cl [Example 3-123]
[1]; 20 g/ha
  Post-emergence action against HORMU in %: 90%
[1]; 80 g/ha
  Post-emergence action against HORMU in %: 100%
[2]; 80 g/ha
  Pre-emergence action against AVEFA: 80%
[2]; 320 g/ha
  Pre-emergence action against AVEFA: 100%
[3]; 5 g/ha
  Post-emergence action against PHBPU in %: 80%
[3]; 20 g/ha
  Post-emergence action against PHBPU in %: 90%
[3]; 80 g/ha
  Post-emergence action against PHBPU in %: 90%
[4]; 5 g/ha
  Post-emergence action against VIOTR in %: 90%
[4]; 20 g/ha
  Post-emergence action against VIOTR in %: 100%
[4]; 80 g/ha
  Post-emergence action against VIOTR in %: 100%
[5]
  Pre-emergence action against VERPE: 90%
[6]; 20 g/ha
  Pre-emergence action against AMARE: 100%
[6]; 80 g/ha
  Pre-emergence action against AMARE: 100%
[6]; 320 g/ha
  Pre-emergence action against AMARE: 100%
[7]; 5 g/ha
  Post-emergence action against ABUTH: 100%
[7]; 20 g/ha
  Post-emergence action against ABUTH: 100%
[7]; 80 g/ha
  Post-emergence action against ABUTH: 100%
[8]; 20 g/ha
  Pre-emergence action against STEME: 90%
[8]; 80 g/ha
  Pre-emergence action against STEME: 100%
[8]; 320 g/ha
  Pre-emergence action against STEME: 100%
[9]; 80 g/ha
  Pre-emergence action against HORMU: 80%
[9]; 320 g/ha
  Pre-emergence action against HORMU: 100%
[10]; 80 g/ha
  Pre-emergence action against SETVI: 100%
[10]; 320 g/ha
  Pre-emergence action against SETVI: 100%
[11]; 80 g/ha
  Pre-emergence action against CYPES: 80%
[11]; 320 g/ha
  Pre-emergence action against CYPES: 90%
[12]; 80 g/ha
  Pre-emergence action against ABUTH: 100%
[12]; Dosage column 320 g/ha (heading prints 3200 g/ha)
  Pre-emergence action against ABUTH: 100%
[13]; 80 g/ha
  Pre-emergence action against VIOTR: 80%
[13]; 320 g/ha
  Pre-emergence action against VIOTR: 100%
[14]; 5 g/ha
  Post-emergence action against AMARE in %: 100%
[14]; 20 g/ha
  Post-emergence action against AMARE in %: 100%
[14]; 80 g/ha
  Post-emergence action against AMARE in %: 100%
[15]; 5 g/ha
  Post-emergence action against MATIN in %: 90%
[15]; 20 g/ha
  Post-emergence action against MATIN in %: 100%
[15]; 80 g/ha
  Post-emergence action against MATIN in %: 100%
[16]; 5 g/ha
  Post-emergence action against AVEFA in %: 80%
[16]; 20 g/ha
  Post-emergence action against AVEFA in %: 100%
[16]; 80 g/ha
  Post-emergence action against AVEFA in %: 100%
[17]; 5 g/ha
  Post-emergence action against STEME in %: 90%
[17]; 20 g/ha
  Post-emergence action against STEME in %: 100%
[17]; 80 g/ha
  Post-emergence action against STEME in %: 100%
[18]; 20 g/ha
  Pre-emergence action against MATIN: 80%
[18]; 80 g/ha
  Pre-emergence action against MATIN: 90%
[18]; 320 g/ha
  Pre-emergence action against MATIN: 100%
[19]; 5 g/ha
  Post-emergence action against SETVI in %: 100%
[19]; 20 g/ha
  Post-emergence action against SETVI in %: 100%
[19]; 80 g/ha
  Post-emergence action against SETVI in %: 100%
[20]
  Pre-emergence action against LOLRI: 80%
[21]; 80 g/ha
  Pre-emergence action against ALOMY: 80%
[21]; 320 g/ha
  Pre-emergence action against ALOMY: 90%
[22]; 80 g/ha
  Pre-emergence action against ECHCG: 80%
[22]; 320 g/ha
  Pre-emergence action against ECHCG: 100%
[23]; 5 g/ha
  Post-emergence action against ECHCG in %: 90%
[23]; 20 g/ha
  Post-emergence action against ECHCG in %: 100%
[23]; 80 g/ha
  Post-emergence action against ECHCG in %: 100%
[24]
  Pre-emergence action against PHBPU: 90%
[25]; 20 g/ha
  Post-emergence action against ALOMY: 80%
[25]; 80 g/ha
  Post-emergence action against ALOMY: 100%
